Results published in patent US6500840B2, “Quinuclidine-substituted heteroaryl moieties for treatment of disease” (Pharmacia & Upjohn Company, priority 2000, dated 2002).
Where a name gives a salt, the structure may show the parent alone. Read-outs that look alike come from different tables or passages of the source.

Target: α7 nAChR (Rattus norvegicus, UniProt Q05941)
Assay: [3H]-MLA competition binding assay, rat brain membranes
[1] = Ki, inhibition of [3H]-MLA binding (3.0 to 4.0 nM), Sprague-Dawley rat whole brain minus cerebellum homogenate, 1 hour at 25° C

Sequence of α7 nAChR (Q05941 23-502): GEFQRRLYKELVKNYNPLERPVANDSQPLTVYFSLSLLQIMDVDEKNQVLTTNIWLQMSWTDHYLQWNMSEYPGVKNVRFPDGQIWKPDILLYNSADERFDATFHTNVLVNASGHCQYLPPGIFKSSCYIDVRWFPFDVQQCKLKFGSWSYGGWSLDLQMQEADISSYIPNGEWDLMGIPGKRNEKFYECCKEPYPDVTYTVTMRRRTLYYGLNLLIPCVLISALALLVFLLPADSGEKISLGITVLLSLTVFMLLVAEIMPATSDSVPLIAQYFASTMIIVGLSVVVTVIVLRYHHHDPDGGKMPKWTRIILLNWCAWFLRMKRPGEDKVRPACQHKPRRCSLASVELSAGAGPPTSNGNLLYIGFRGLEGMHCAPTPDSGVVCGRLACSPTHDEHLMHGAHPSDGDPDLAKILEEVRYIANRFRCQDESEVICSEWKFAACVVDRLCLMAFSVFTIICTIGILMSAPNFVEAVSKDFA
Method: Membrane Preparation. Male Sprague-Dawley rats (300-350 g) are sacrificed by decapitation and the brains (whole brain minus cerebellum) are dissected quickly, weighed and homogenized in 9 volumes/g wet weight of ice-cold 0.32 M sucrose using a rotating pestle on setting 50 (10 up and down strokes). The homogenate is centrifuged at 1,000×g for 10 minutes at 4° C. The supernatant is collected and centrifuged at 20,000×g for 20 minutes at 4° C. The resulting pellet is resuspended to a protein concentration of 1-8 mg/mL. Aliquots of 5 mL homogenate are frozen at −80° C. until needed for the assay.
Binding Assay. […] Filters are pre-soaked in 50 mm Tris HCl pH 7.0-0.05% polyethylenimine. The filters are rapidly washed two times with 5 mL aliquots of cold 0.9% saline and then counted for radioactivity by liquid
Data Analysis. […] Hill coefficients were obtained using non-linear regression (GraphPad Prism sigmoidal dose-response with variable slope).

Structure (SMILES)	Ki [1]	Ki
CC1C(NC(=O)c2ccc(Br)s2)C2CCN1CC2 (mixture of isomers) [Example 158, 5-Bromo-N-(2-methyl-1-azabicyclo[2.2.2]oct-3-yl)thiophene-2-carboxamide 4-Methylbenzenesulfonate]	12 to 20 nM	
O=C(N[C@H]1CN2CCC1CC2)c1ccc(-c2ccccc2)s1 [Example 1, N-[(3R)-1-Azabicyclo[2.2.2]oct-3-yl]-5-phenyl-thiophene-2-carboxamide Hydrochloride]	13 to 33 nM	
O=C(N[C@H]1CN2CCC1CC2)c1ccc(-c2ccc(Cl)cc2)s1 [Example 2, N-[(3R)-1-azabicyclo[2.2.2]oct-3-yl]-5-(4-clorophenyl)-thiophene-2-carboxamide hydrochloride]	110 nM	
O=C(N[C@H]1CN2CCC1CC2)c1ccc(-c2cccc(Cl)c2)s1 [Example 3, N-[(3R)-1-azabicyclo[2.2.2]oct-3-yl]-5-(3-chlorophenyl)-thiophene-2-carboxamide hydrochloride]	95 to 157 nM	
O=C(N[C@H]1CN2CCC1CC2)c1ccc(-c2ccccc2Cl)s1 [Example 4, N-[(3R)-1-azabicyclo[2.2.2]oct-3-yl]-5-(2-chlorophenyl)-thiophene-2-carboxamide hydrochloride]	60 to 73 nM	
O=C(N[C@H]1CN2CCC1CC2)c1ccc(-c2ccsc2)s1 [Example 5, N-[(3R)-1-azabicyclo[2.2.2]oct-3-yl]-2,3′-bithiophene-5-carboxamide hydrochloride]	9 to 15 nM	
O=C(N[C@H]1CN2CCC1CC2)c1ccc(-c2ccccc2[N+](=O)[O-])s1 [Example 6, N-[(3R) 1-azabicyclo[2.2.2]oct-3-yl]-5-(2-nitrophenyl)-thiophene-2-carboxamide hydrochloride]	5 to 10 nM	
O=C(N[C@H]1CN2CCC1CC2)c1ccc(-c2cccc([N+](=O)[O-])c2)s1 [Example 7, N-[(3R)-1-azabicyclo[2.2.2]oct-3-yl]-5-(3-nitrophenyl)-thiophene-2-carboxamide]	25 to 30 nM	
O=C(N[C@H]1CN2CCC1CC2)c1cc(-c2ccccc2)cs1 [Example 8, N-[(3R)-1-azabicyclo[2.2.2]oct-3-yl]4-phenyl-thiophene-2-carboxamide hydrochloride]	46 nM	
O=C(N[C@H]1CN2CCC1CC2)c1ccc(-c2cccc(OCc3ccccc3)c2)s1 [Example 9, N-[(3R)-1-azabicyclo[2.2.2]oct-3-yl]-5-(3-benzyloxyphenyl)-thiophene-2-carboxamide hydrochloride]	540 to 570 nM	
Nc1ccccc1-c1ccc(C(=O)N[C@H]2CN3CCC2CC3)s1 [Example 12, 5-(2-Aminophenyl)-N-[(3R)-1-azabicyclo[2.2.2]oct-3-yl]-thiophene-2-carboxamide]	45 to 75 nM	
Cc1ccc(-c2ccc(C(=O)N[C@H]3CN4CCC3CC4)s2)s1 [Example 14, N-[(3R)-1-Azabicyclo[2.2.2]oct-3-yl]-5′-methyl-2,2′-bithiophene-5-carboxamide Hydrochloride]	12 to 16 nM	
O=C(N[C@H]1CN2CCC1CC2)c1ccc(-c2ccc(Cl)s2)s1 [Example 15, N-[(3R)-1-Azabicyclo[2.2.2]oct-3-yl]-5′-chloro-2,2′-bithiophene-5-carboxamide Hydrochloride]	40 to 90 nM	
O=C(N[C@H]1CN2CCC1CC2)c1ccc([N+](=O)[O-])s1 [Example 16, N-[(3R)-1-Azabicyclo[2.2.2]oct-3-yl]-5-nitro-thiophene-2-carboxamide Hydrochloride]	3 to 8 nM	
NCc1ccc(C(=O)N[C@H]2CN3CCC2CC3)s1 [Example 17, 5-(Aminomethyl)-N-[(3R)-1-azabicyclo[2.2.2]oct-3-yl]-thiophene-2-carboxamide Dihydrochloride]	260 to 385 nM	
N#Cc1ccc(C(=O)N[C@H]2CN3CCC2CC3)s1 [Example 18, N-[(3R)-1-Azabicyclo[2.2.2]oct-3-yl]-5-cyano-thiophene-2-carboxamide Hydrochloride]	240 to 290 nM	
COc1ccc(C(=O)N[C@H]2CN3CCC2CC3)s1 [Example 19, N-[(3R)-1-Azabicyclo[2.2.2]oct-3-yl]-5-methoxy-thiophene-2-carboxamide Hydrochloride]	24 nM	
O=C(N[C@H]1CN2CCC1CC2)c1ccc(-c2ccccn2)s1 [Example 20, N-[(3R)-1-Azabicyclo[2.2.2]oct-3-yl]-5-(pyridin-2-yl)-thiophene-2-carboxamide]	3 to 5 nM	
O=C(N[C@H]1CN2CCC1CC2)c1ccc(-c2cccs2)s1 [Example 21]	1 to 2 nM	
CSc1ccc(C(=O)N[C@H]2CN3CCC2CC3)s1 [Example 22, N-[(3R)-1-Azabicyclo[2.2.2]oct-3-yl]-5-(methylsulfanyl)-thiophene-2-carboxamide]	1 to 6 nM	
O=C(N[C@H]1CN2CCC1CC2)c1ccc(Cl)s1 [Example 23, N-[(3R)-1-azabicyclo[2.2.2]oct-3-yl]-5-chloro-thiophene-2-carboxamide]	6 to 10 nM	

Structure (SMILES)	Ki [1]	Ki
Cc1ccc(C(=O)N[C@H]2CN3CCC2CC3)s1 [Example 25, N-[(3R)-1-azabicyclo[2.2.2]oct-3-yl]-5-methyl-thiophene-2-carboxamide]	10 to 15 nM	
O=C(N[C@H]1CN2CCC1CC2)c1ccc(Br)s1 [Example 26, N-[(3R)-1-azabicyclo[2.2.2]oct-3-yl]-5-bromo-thiophene-2-carboxamide]	5 to 20 nM	
O=C(N[C@H]1CN2CCC1CC2)c1ccc(Sc2ccccc2)s1 [Example 27, N-[(3R)-1-azabicyclo[2.2.2]oct-3-yl]-5-(phenylsulfanyl)-thiophene-2-carboxamide]	35 to 160 nM	
O=C(N[C@H]1CN2CCC1CC2)c1ccc(Sc2ccc(Cl)cc2)s1 [Example 33, N-[(3R)-1-Azabicyclo[2.2.2]oct-3-yl]-5-(4-chlorophenylsulfanyl)-thiophene-2-carboxamide]	27 nM	
O=C(N[C@H]1CN2CCC1CC2)c1ccc(Sc2ccc(F)cc2F)s1 [Example 34, N-[(3R)-1-azabicyclo[2.2.2]oct-3-yl]-5-(2,4-difluorophenyl-sulfanyl)-thiophene-2-carboxamide hydrochloride]	30 to 39 nM	
O=C(N[C@H]1CN2CCC1CC2)c1ccc(Sc2cccc(Cl)c2)s1 [Example 35, N-[(3R)-1-azabicyclo[2.2.2]oct-3-yl]-5-(3-chlorophenyl-sulfanyl)-thiophene-2-carboxamide]	30 to 50 nM	
O=C(N[C@H]1CN2CCC1CC2)c1ccc(Sc2ccc(F)c(Cl)c2)s1 [Example 36, N-[(3R)-1-azabicyclo[2.2.2]oct-3-yl]-5-(3-chloro-4-fluorophenylsulfanyl)-thiophene-2-carboxamide]		110 to 115 nM
O=C(N[C@H]1CN2CCC1CC2)c1ccc(Oc2ccccc2)s1 [Example 40, N-[(3R)-1-Azabicyclo[2.2.2]oct-3-yl]-5-phenoxy-thiophene-2-carboxamide Hydrochloride]	12 to 16 nM	
O=C(N[C@H]1CN2CCC1CC2)c1ccc(-c2ccccc2O)s1 [Example 41, N-[(3R)-1-Azabicyclo[2.2.2]oct-3-yl]-5-(2-hydroxyphenyl)-thiophene-2-carboxamide Hydrochloride]	34 nM	
O=C(N[C@H]1CN2CCC1CC2)c1ccc(-c2ccc(O)c(F)c2)s1 [Example 43, N-[(3R)-1-Azabicyclo[2.2.2]oct-3-yl]-5-(3-fluoro-4-hydroxyphenyl)-thiophene-2-carboxamide Hydrochloride]	3 to 5 nM	
O=C(N[C@H]1CN2CCC1CC2)c1cnc(-c2ccccc2)s1 [Example 50, N-[(3R)-1-Azabicyclo[2.2.2]oct-3-yl]-2-phenyl-1,3-thiazole-5-carboxamide Fumarate]	68 to 564 nM	
O=C(N[C@H]1CN2CCC1CC2)c1cnc(-c2ccccc2F)s1 [Example 52, N-[(3R)-1-Azabicyclo[2.2.2]oct-3-yl]-2-(2-fluorophenyl)-1,3-thiazole-5-carboxamide Citrate]	340 to 480 nM	
O=C(N[C@H]1CN2CCC1CC2)c1cnc(-c2cccc(F)c2)s1 [Example 53, N-[(3R)-1-azabicyclo[2.2.2]oct-3-yl]-2-(3-fluorophenyl)-1,3-thiazole-5-carboxamide 4-methylbenzenesulfonate]	1900 to 1970 nM	
O=C(N[C@H]1CN2CCC1CC2)c1cnc(-c2ccccc2O)s1 [Example 55, N-[(3R)-1-azabicyclo[2.2.2]oct-3-yl]-2-(2-hydroxyphenyl)-1,3-thiazole-5-carboxamide hydrochloride]	60 to 70 nM	
O=C(N[C@H]1CN2CCC1CC2)c1ncc(-c2cccc(Cl)c2)o1 [Example 79, N-[(3R)-1-Azabicyclo[2.2.2]oct-3-yl]-5-(3-chlorophenyl)-1,3-oxazole-2-carboxamide 4-Methylbenzenesulfonate]	20 to 75 nM	
COc1cccc(-c2cnc(C(=O)N[C@H]3CN4CCC3CC4)o2)c1 [Example 80, N-[(3R)-1-azabicyclo[2.2.2]oct-3-yl]-5-(3-methoxyphenyl)-1,3-oxazole-2-carboxamide 4-methylbenzenesulfonate]	50 to 60 nM	
O=C(N[C@H]1CN2CCC1CC2)c1ncc(-c2cccc([N+](=O)[O-])c2)o1 [Example 81, N-[(3R)-1-azabicyclo[2.2.2]oct-3-yl]-5-(3-nitrophenyl)-1,3-oxazole carboxamide 4-methylbenzenesulfonate]	55 to 175 nM	
COc1ccc(-c2cnc(C(=O)N[C@H]3CN4CCC3CC4)o2)cc1 [Example 82, N-[(3R)-1-azabicyclo[2.2.2]oct-3-yl]-5-(4-methoxyphenyl)-1,3-oxazole-2-carboxamide 4-methylbenzenesulfonate]	115 to 125 nM	
O=C(N[C@H]1CN2CCC1CC2)c1ncc(-c2ccccc2[N+](=O)[O-])o1 [Example 83, N-[(3R)-1-azabicyclo[2.2.2]oct-3-yl]-5-(2-nitrophenyl)-1,3-oxazole-2-carboxamide 4-methylbenzenesulfonate]	2 to 3 nM	
COc1ccccc1-c1cnc(C(=O)N[C@H]2CN3CCC2CC3)o1 [Example 84, N-[(3R)-1-azabicyclo[2.2.2]oct-3-yl]-5-(2-methoxyphenyl)-1,3-oxazole-2-carboxamide 4-methylbenzenesulfonate]	1100 to 1490 nM	
O=C(N[C@H]1CN2CCC1CC2)c1ncc(-c2ccc(F)cc2)o1 [Example 85, N-[(3R)-1-azabicyclo[2.2.2]oct-3-yl]-5-(4-fluorophenyl)-1,3-oxazole-2-carboxamide 4-methylbenzenesulfonate]	30 to 40 nM	
